# Where two headings read alike, the source gives them in different places. Marks after values point to notes of the source that are not given here.
# How the values were obtained:
# [1] = bulk form; cited from earlier work
# [2] = test system: C. albicans ATCC MYA-2876(S); assay: MIC determination, strain C; assay type: cell-based, Candida albicans; settings: Candida albicans
# Experimental: (§1) The antifungal activity of our new azole compounds 1-9 and 24-41 was first evaluated against a panel of seven Candida albicans strains (A-G), three non-albicans Candida strains […], and three Aspergillus strains (K-M) in a concentration range of 0.03-31.2 μg/mL (Table 1). […] For all of our azole derivatives we report their MIC-0 values against C. albicans ATCC 10231 (strain A) and all Aspergillus strains (K-M), which correspond to complete growth inhibition of these fungi. […] The commercially available antifungals AmB, FLC, ITC, POS, and VOR were used as reference drugs for comparison. The MIC values presented for these five control drugs were either tested herein or correspond to our previously published data^5, 16 as indicated in Table 1.
# (§2) Antifungal activity in the absence or presence of serum. The antifungal activity of the newly prepared alkylated piperazine/morpholine-azole hybrids 16-28, of intermediate 14 that we used to verify that only final compounds exert antifungal activity, as well as that of alkylated piperazine/morpholine derivatives 1-10 were first evaluated against a panel of seven C. albicans (ATCC 10231 (A), ATCC 64124(R) (B), ATCC MYA-2876(S) (C), ATCC 90819(R) (D), ATCC MYA-2310(S) (E), ATCC MYA-1237(R) (F), and ATCC MYA-1003(R) (G)), three non-albicans Candida (C. glabrata ATCC 2001 (H), C. krusei ATCC 6258 (I), and C. parapsilosis ATCC 22019 (J)), and three Aspergillus (A. flavus ATCC MYA-3631 (K), A. nidulans ATCC 38163 (L), and A. terreus ATCC MYA-3633 (M)) strains using a concentration range of 0.03-31.3 μg/mL (Table 2).
# (§3) Commercially available antifungal agents such as AmB, CAS, FLC, and VOR were used as positive controls for comparison. […] It is important to note that all comparisons to follow will be done by using the MIC values reported in μg/mL as the data were collected that way. However, we also present in parentheses in Table 2 the corresponding values in micromolar.
# (§4) We used the commercially available antifungal agents such as AmB, caspofungin (CAS), FLC, and VOR as positive controls for comparison. For derivatives 5-16 as well as the reference drugs AmB and CAS, we reported MIC-0 values, which correspond to no visible growth. […] In this manuscript, we performed all activity comparisons by using the MIC values reported in μg/mL (Note: the corresponding MIC values are also provided in μM into parentheses in Tables 1, 2, S1, and S2).
# [3] = test system: ergosterol biosynthetic pathway (sterol 14α-demethylase) in C. albicans ATCC 10231 (strain A); assay: Sterol composition by GC-MS, strain A; assay type: cell-based, Candida albicans
# Source text: (§5) FIG. 7A-FIG. 7H includes FIG. 7A. A simplified ergosterol biosynthetic pathway and products resulting from inhibition of ERG11. FIG. 7B-G. include GC-MS chromatograms of the sterols extracted from untreated and antifungals treated C. albicans strains. […] The peaks are for lanosterol (1), ergosterol (2), eburicol (3), 14-alpha-methyl ergosta 8,24(28)-dien-3-beta,6-alpha-diol (4), and unknown sterols (5 and 6). FIG. 7H is a table summarizing the percentage of each sterol from panels B-G.
# FIG. 13A. A simplified ergosterol biosynthetic pathway and products resulting from inhibition of ERG11. FIG. 13B-FIG. 13F. GC-MS chromatograms of the sterols extracted from untreated and antifungal-treated C. albicans ATCC 10231 (strain A). […] The peaks in these chromatograms are for lanosterol (1), ergosterol (2), eburicol (3), 14α-methyl ergosta-8,24(28)-dien-3β,6α-diol (4), and three unknown sterols (5-7). FIG. 13G includes a table summarizing the percentage of each sterol from panels B-F.
# (§6) No drug controls were also performed (FIGS. 7D and G).
# Determination of sterol composition in c. albicans in the presence and absence of drugs. […] By using gas chromatography-mass spectrometry (GC-MS), we investigated the potential of the synthetic compounds to exert their antifungal activity by inhibiting the sterol 14α-demethylase enzyme of the ergosterol biosynthetic pathway (FIG. 13). […] A no drug control was also performed (FIG. 13A).
# Since out of our compounds displaying antifungal activity only compound 8 caused membrane disruption of C. albicans ATCC 10231 (strain A) in the membrane permeabilization assay (section 2.6), we decided to explore by using gas chromatography-mass spectrometry (GC-MS) the effect of compounds 8 and 9 on sterol composition during ergosterol biosynthesis (the mechanism of action of other conventional azoles). […] We also used VOR at 0.12 μg/mL and no drug control for comparison.
# [4] = test system: Candida glabrata ATCC 2001; settings: Table 1; strain H; control azoles; previously reported (refs 5, 16); cited from earlier work
# [5] = test system: Candida glabrata ATCC 2001; assay: MIC determination, strain H; assay type: cell-based; settings: Nakaseomyces glabratus, ATCC2001
# Experimental: as §1, §2, §3, §4
# [6] = test system: Candida krusei ATCC 6258; settings: Table 1; strain I; control azoles; previously reported (refs 5, 16); cited from earlier work
# [7] = test system: C. albicans ATCC 64124; assay: MIC determination, strain B; assay type: cell-based, Candida albicans; settings: Candida albicans, ATCC64124
# Experimental: as §1, §2, §3, §4
# [8] = test system: C. albicans ATCC 90819(R); assay: MIC determination, strain D; assay type: cell-based, Candida albicans; settings: Candida albicans, ATCC90819
# Experimental: as §1, §2, §3, §4
# [9] = test system: C. albicans ATCC MYA-2876(S); settings: Table 1; strain C; control azoles; previously reported (refs 5, 16); cited from earlier work
# [10] = test system: Candida krusei ATCC 6258; assay: MIC determination, strain I; assay type: cell-based; settings: Pichia kudriavzevii, ATCC6258
# Experimental: as §1, §2, §3, §4
# [11] = test system: Candida parapsilosis ATCC 22019; settings: Table 1; strain J; control azoles; previously reported (refs 5, 16); cited from earlier work
# [12] = test system: ergosterol biosynthetic pathway (sterol 14α-demethylase) in C. albicans ATCC 64124 (strain B); assay: Sterol composition by GC-MS, strain B; assay type: cell-based, Candida albicans; settings: Ex.1 series, 1.95 μg/mL
# Source text: as §5, §6
# [13] = test system: Candida parapsilosis ATCC 22019; assay: MIC determination, strain J; assay type: cell-based; settings: Lodderomyces parapsilosis, ATCC22019
# Experimental: as §1, §2, §3, §4
# [14] = test system: C. albicans ATCC MYA-2310(S); assay: MIC determination, strain E; assay type: cell-based, Candida albicans; settings: Candida albicans
# Experimental: as §1, §2, §3, §4
# [15] = test system: C. albicans ATCC MYA-2310(S); settings: Table 1; strain E; control azoles; previously reported (refs 5, 16); cited from earlier work
# [16] = test system: C. albicans ATCC 64124; settings: Table 1; strain B; control azoles; previously reported (refs 5, 16); cited from earlier work
# [17] = test system: C. albicans ATCC MYA-1237(R); settings: Table 1; strain F; control azoles; previously reported (refs 5, 16); cited from earlier work
# [18] = test system: C. albicans ATCC MYA-1003(R); settings: Table 1; strain G; control azoles; previously reported (refs 5, 16); cited from earlier work
# [19] = test system: C. albicans ATCC 90819(R); settings: Table 1; strain D; control azoles; previously reported (refs 5, 16); cited from earlier work
# [20] = test system: Aspergillus flavus ATCC MYA-3631; settings: Table 1; strain K; control azoles; previously reported (refs 5, 16); cited from earlier work
# [21] = test system: Candida albicans ATCC 10231; settings: Table 1; strain A; control azoles FLC, ITC, POS, VOR; previously reported (refs 5, 16); cited from earlier work
# [22] = test system: Aspergillus terreus ATCC MYA-3633; settings: Table 1; strain M; control azoles; previously reported (refs 5, 16); cited from earlier work
# [23] = test system: Aspergillus nidulans ATCC 38163; settings: Table 1; strain L; control azoles; previously reported (refs 5, 16); cited from earlier work
# [24] = read-out: MIC (MIC-2), in parentheses
smiles,measurement,setting,value
"OC(Cn1cncn1)(Cn1cncn1)c1ccc(F)cc1F [FLC, fluconazole]",solubility in organic solvents such as DMSO,[1],highly soluble
same,solubility in water,[1],only slightly soluble
same,MIC,[2]; read-out: MIC (MIC-2),15.6 µg/mL
same,MIC,[2]; [24],50.9 µM
same,"ergosterol, percentage of sterols","[3]; Ex.1 series, 0.125 μg/mL",~93%
same,"ergosterol (2), percentage of sterols","[3]; Ex.2 series, FLC 1.95, VOR 0.12, 20 0.48, 26 0.975 μg/mL",95.90%
same,MIC (MIC-2),[4],>31.2^c μg/mL
same,MIC,[5]; read-out: MIC (MIC-2),> 31.3 µg/mL
same,MIC,[5]; [24],> 102 µM
same,MIC (MIC-2),[6],>31.2^c μg/mL
same,MIC,[7]; read-out: MIC (MIC-2),> 125 µg/mL
same,MIC,[7]; [24],> 408 µM
same,MIC,[8]; read-out: MIC (MIC-2),> 125 µg/mL
same,MIC,[8]; [24],> 408 µM
same,MIC (MIC-2),[9],15.6^b μg/mL
same,MIC,[10]; read-out: MIC (MIC-2),> 31.3 µg/mL
same,MIC,[10]; [24],> 102 µM
same,MIC (MIC-2),[11],1.95^c μg/mL
same,"eburicol, percentage of sterols",[12],~12%
same,"ergosterol, percentage of sterols",[12],~48%
same,"lanosterol, percentage of sterols",[12],~30%
same,MIC,[13]; read-out: MIC (MIC-2),1.95 µg/mL
same,MIC,[13]; [24],6.4 µM
same,MIC,[14]; read-out: MIC (MIC-2),> 125 µg/mL
same,MIC,[14]; [24],> 408 µM
same,MIC (MIC-2),[15],>125^b μg/mL
"CCC(C)n1ncn(-c2ccc(N3CCN(c4ccc(OCC5COC(Cn6cncn6)(c6ccc(Cl)cc6Cl)O5)cc4)CC3)cc2)c1=O (stereo not drawn) [ITC, itraconazole]",MIC (MIC-2),[16],>62.5^b μg/mL
same,MIC (MIC-2),[17],31.2^b μg/mL
same,MIC (MIC-2),[4],7.8^c μg/mL
same,MIC (MIC-2),[6],0.48^c μg/mL
same,MIC (MIC-2),[9],7.8^b μg/mL
same,MIC (MIC-2),[18],31.2^b μg/mL
same,MIC (MIC-2),[11],0.12^c μg/mL
same,MIC (MIC-2),[19],31.2^b μg/mL
same,MIC (MIC-2),[15],31.2^b μg/mL
same,MIC (MIC-2),[20],0.48^c μg/mL
same,MIC (MIC-2),[21],0.5^b μg/mL
same,MIC (MIC-2),[22],0.975^c μg/mL
same,MIC (MIC-2),[23],0.195^b μg/mL
"CC[C@@H]([C@H](C)O)n1ncn(-c2ccc(N3CCN(c4ccc(OC[C@@H]5CO[C@@](Cn6cncn6)(c6ccc(F)cc6F)C5)cc4)CC3)cc2)c1=O [POS, posaconazole]",MIC (MIC-2),[16],>62.5^b μg/mL
same,MIC (MIC-2),[17],15.6^b μg/mL
same,MIC (MIC-2),[4],0.12^c μg/mL
same,MIC (MIC-2),[6],0.06^c μg/mL
same,MIC (MIC-2),[9],7.8^b μg/mL
same,MIC (MIC-2),[18],15.6^b μg/mL
same,MIC (MIC-2),[11],<0.03^c μg/mL
same,MIC (MIC-2),[15],31.2^b μg/mL
same,MIC (MIC-2),[20],0.24^c μg/mL
same,MIC (MIC-2),[21],0.5^b μg/mL
same,MIC (MIC-2),[22],0.48^c μg/mL
same,MIC (MIC-2),[23],0.195^b μg/mL
